We go through 7 molecules from PMC6858345, “Structural insights into heme binding to IL-36α proinflammatory cytokine” (Scientific Reports, 2019).

Like-named read-outs stand apart in the source and are kept apart here.

Details of experiment [1]: method as in PMID 23730736. The following applies: UV shift to ~366 nm; read-out: Heme binding affinity of the 9mer CP-motif (UV/Vis); cited from earlier work.
The target of a further experiment is T1, IL-36α (Homo sapiens, UniProt Q9UHA7).
T1 construct: three additional amino acids (Gly-Ser-His) attached at the N-terminus of full-length IL-36α (161 amino acids); His6 tag with thrombin cleavage site (N, cleaved yes); made in house; host or cells: Escherichia coli BL21(DE3), pET-28a
T1 sequence (Q9UHA7 6-158): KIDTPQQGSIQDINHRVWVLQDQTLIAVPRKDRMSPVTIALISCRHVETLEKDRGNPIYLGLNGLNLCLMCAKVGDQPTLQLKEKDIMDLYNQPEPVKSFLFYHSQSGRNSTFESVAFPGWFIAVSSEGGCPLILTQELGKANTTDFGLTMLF
Put plainly: UV/Vis differential spectroscopy, protoporphyrin IX applied to IL-36α. The format is binding. As to the method:
(§1) A Multiskan GO microplate spectrophotometer (ThermoFisher Scientific, Dreieich, Germany) was used for UV/Vis measurements. Heme and peptide solutions were prepared in 100 mM Hepes buffer (pH 7.0). IL-36 cytokines (~5 µM), dissolved in 20 mM sodium phosphate buffer (pH 6.9), were incubated with heme (0.2 to 40 µM) in the dark at room temperature for 60 minutes before UV/Vis spectra were measured at 300 to 600 nm. Protein concentrations were corrected using the calculated molar absorption coefficient at 280 nm. Peptides 1–7 (20 µM) were incubated with heme for 30 minutes in the dark at room temperature.

A short description of experiment [2]: Peroxidase-like activity of heme complexes. The following applies: protein:heme 1:1 and 1:2. The format is biochemical. The source says: A peroxidase-like activity of heme-peptide/protein complexes has been discussed to be critical due to cytotoxic ROS formation[4],[43]–[45]. We thus tested the peroxidase-like activity of IL-36α-heme-complexes in two different ratios (1:1 and 1:2, protein:heme) as well as of both heme-binding motifs (CP, YH) on the peptide level (Supplementary Fig. S5E).

Experiment [3] is described as follows: UV/Vis differential spectroscopy of heme-incubated proteins and peptides. The following applies: peptide 20 µM, 30 min, 100 mM Hepes pH 7.0; read-out: KD for UV/Vis, IL-36α-derived peptides. The format is binding. How it is done: as §1
A short description of experiment [4]: Surface plasmon resonance (SPR) of heme binding to immobilized proteins, single-cycle kinetics. As to the method:
SPR measurements were performed on a Biacore T200 instrument (GE Healthcare Europe GmbH, Freiburg, Germany) at 25 °C. The running buffer was 10 mM HEPES (pH 7.4), 150 mM NaCl, 0.05% Tween 20. The proteins BSA (VWR Life Science AMRESCO, Germany), lysozyme (AppliChem GmbH, Darmstadt, Germany), IL-36α (protein expression), trIL-36α (R&D Systems, Minneapolis, MN, USA), trIL-36β (isoform 2, R&D Systems, Minneapolis, MN, USA) and trIL-36γ (R&D Systems, Minneapolis, MN, USA) were covalently immobilized by amine coupling on a CM5 sensor chip (GE Healthcare). Briefly, lysozyme was diluted to a final concentration of 2.5 µg/mL in acetate buffer (pH 7.0), and BSA was diluted to 2.5 µg/mL in acetate buffer (pH 5.0). trIL-36α, trIL-36β, and trIL-36γ were diluted to 0.85 µg/mL in acetate buffer (pH 4.0). Subsequently, the proteins were separately injected at 10 µL/min on an EDC/NHS activated flow cell until immobilization levels of 1600 RU (lysozyme), 1050 RU (trIL-36α), 2900 RU (BSA), 937 RU (trIL-36β), and 320 RU (trIL-36γ) were achieved. An activated/deactivated flow cell was used for reference subtraction. […]
In general terms: In SPR one partner is held on a chip, and binding of the other changes the refractive index at the surface.

Experiment [5] is described as follows: Fluorescence quenching of heme-incubated proteins. The format is binding. The note with it: λex 306 nm, λem 352 nm; protein 1 µM, heme 0.1-16 µM. As to the method: All measurements were performed on a fluorescence spectrophotometer FP-8300 (Jasco, Tokyo, Japan). BSA (1 µM) and lysozyme (1 µM) were dissolved in PBS buffer (pH 7.4) and IL-36α variants (1 µM) in 20 mM sodium phosphate buffer (pH 6.9), were each dissolved in and incubated for 60 minutes with varying heme concentrations (0.1–16 µM) in the dark. Parameters were set to excitation at 306 nm, emission at 352 nm, bandwidth 10 nm (extinction) and 20 nm (emission)[30].

The subject of experiment [6] is synovial fibroblast-like synoviocytes (FLS) from RA patients. Kind of experiment: IL-6/IL-8 mRNA expression (qRT-PCR) in stimulated FLS. The format is cell-based, human. The following applies: 24 h; for IL-6 and IL-8 expression (mRNA) in FLS: IL-36α 5.8 nM, heme 0.15 and 1.5 µM (ratios 26:1 and 260:1). As to the method: Human fibroblast-like synoviocytes (FLS) were isolated from knee joints of rheumatoid arthritis patients obtained at the University Hospital Erlangen-Nuremberg[69]. All patients gave written informed consent, and their use for research was approved by the ethics committee of the University hospital Erlangen (ethic licenses 4013 and 4065). We confirm that all methods were performed in accordance with the relevant guidelines and regulations. Human RA FLS kept at 37 °C and 5% CO2 in a humidified incubator upon isolation. They were cultured in RPMI and DMEM at a ratio of 1:5, supplemented with 50 U/mL penicillin, 50 μg/mL streptomycin, 0.2% amphotericin and 2% fetal bovine serum. Cells between passages 3 to 8 were used. For stimulation experiments, human FLS from RA patients were seeded at a concentration of 100,000 cells/mL in 500 μL culture medium in a 48-well plate one day prior to the experiment. […] Cells were then incubated for either 5 min (western blot analysis of phosphorylation) or 24 h (qPCR and ELISA). Sample separation was performed by a reducing […] (10% SDS polyacrylamide gel) and blotted to a nitrocellulose membrane by semi-dry transfer. […] Cell viability was analyzed using the AlamarBlue assay according to the manufacturer's instruction (#741802, Invitrogen, Carlsbad, CA, USA), and absorbance was measured at 570 nm and 600 nm. For performing quantitative real-time PCR (qRT-PCR), RNA was isolated from FLS with […], Germany), followed by first-strand cDNA synthesis using the MultiScribeTM MuLV reverse transcriptase (Applied Biosystems, Foster City, CA, USA), both according to manufacturer's instruction. Relative gene expression was assessed by qRT-PCR using the Applied Biosystems 7500 fast-real-time-PCR System (Applied Biosystems) with SYBR® Select Master Mix (ThermoFisher Scientific) as detection method, according to the manufacturer's manual. Samples and the housekeeping gene GAPDH as endogenous control were analyzed in duplicates. […]
A general note: In qPCR the cycle at which signal appears reflects the starting amount.

Experiment [7] shares this test system. Put plainly: p38 activation in FLS (western blot of P-p38). The format is cell-based, human. The note with it: 5 min stimulation. As to the method:
Human fibroblast-like synoviocytes (FLS) were isolated from knee joints of rheumatoid arthritis patients obtained at the University Hospital Erlangen-Nuremberg[69]. All patients gave written informed consent, and their use for research was approved by the ethics committee of the University hospital Erlangen (ethic licenses 4013 and 4065). We confirm that all methods were performed in accordance with the relevant guidelines and regulations. Human RA FLS kept at 37 °C and 5% CO2 in a humidified incubator upon isolation. They were cultured in RPMI and DMEM at a ratio of 1:5, supplemented with 50 U/mL penicillin, 50 μg/mL streptomycin, 0.2% amphotericin and 2% fetal bovine serum. Cells between passages 3 to 8 were used.
For stimulation experiments, human FLS from RA patients were seeded at a concentration of 100,000 cells/mL in 500 µL culture medium in a 48-well plate one day prior to the experiment. Before stimulation of FLS, heme was pre-incubated with trIL-36α or trIL-36α protein mutants with substituted amino acids in the proposed heme-binding site in medium for 1 h at room temperature in the dark. […] Cell viability was analyzed using the AlamarBlue assay according to the manufacturer’s instruction (#741802, Invitrogen, Carlsbad, CA, USA), and absorbance was measured at 570 nm and 600 nm.

Consider “SEGGC136P137LIL (SEGGCPLIL; UniProt Q9UHA7 132-140, looked up, fragment) [9mer CP-motif]”, for which the Kd in experiment [1] was 3.75 ± 0.77 µM.
For `C=CC1=C(C)c2cc3[nH]c(cc4nc(cc5[nH]c(cc1n2)c(C)c5CCC(=O)O)C(CCC(=O)O)=C4C)c(C)c3C=C` [protoporphyrin IX (PPIX), protoporphyrin IX], the “Effect on UV/Vis differential spectrum of IL-36α” value at IL-36α is on record as “No effect”.
On to “FLFY108H109SQSG (FLFYHSQSG; UniProt Q9UHA7 105-113, looked up, fragment) [Peptide 1, IL-36α-derived 9mer wild-type YH motif peptide]”, for which, in experiment [2], the “Peroxidase-like activity relative to heme (100%)” value is “No significant increase”. For the same molecule, the Kd in experiment [3] was 4.48 ± 2.2 µM.
For “Lysozyme: negative control (non-binder) for heme binding [reference compound]”, in experiment [4], the “Heme binding by SPR (in words)” value was “non-binder”. In experiment [5], the “Heme binding by fluorescence quenching (in words)” value is reported as “non-binder”.
Turning to `C=CC1=C(C)C2=Cc3c(C=C)c(C)c4[n]3[Fe+][n]3c(c(C)c(CCC(=O)O)c3=CC3=NC(=C4)C(C)=C3CCC(=O)O)=CC1=N2` [heme], in experiment [6], the “IL-6 and IL-8 expression (mRNA) in FLS” value is on record as “did not have an effect”. Moreover, in experiment [7], the “Activation of p38 in IL-36α-mediated signaling” value was “decreased activation of p38”.

B1: IL-36α: full-length interleukin-36α, recombinantly expressed in E. coli (protein, UniProt Q9UHA7 1-158, looked up)
chain: MEKALKIDTPQQGSIQDINHRVWVLQDQTLIAVPRKDRMSPVTIALISCRHVETLEKDRGNPIYLGLNGLNLCLMCAKVGDQPTLQLKEKDIMDLYNQPEPVKSFLFYHSQSGRNSTFESVAFPGWFIAVSSEGGCPLILTQELGKANTTDFGLTMLF
modifications: full-length
notes: full-length interleukin-36α, recombinantly expressed in E. coli
For the molecule B1, the “Peroxidase-like activity relative to heme (100%)” value in experiment [2] is “No significant increase”. Further, the “IL-6 and IL-8 expression (mRNA) in FLS” value in experiment [6] was “induced IL-6 and IL-8 expression”. Besides, the “Heme binding by fluorescence quenching (in words)” value in experiment [5] was “confirmed”.

B2: C136SP137A: IL-36α protein mutant C136S P137A (protein, UniProt Q9UHA7 6-158, looked up, variant C136S P137A)
Interleukin-36 alpha: KIDTPQQGSIQDINHRVWVLQDQTLIAVPRKDRMSPVTIALISCRHVETLEKDRGNPIYLGLNGLNLCLMCAKVGDQPTLQLKEKDIMDLYNQPEPVKSFLFYHSQSGRNSTFESVAFPGWFIAVSSEGGSALILTQELGKANTTDFGLTMLF
On to B2, for which the “IL-6 expression / biological activity of IL-36α mutants in FLS” value in experiment [6] (5.8 nM protein, compared to IL-36α) is listed as “showed biological activity, even if reduced with respect to wild-type IL-36α”.
